Measurements published in article PMC3322975 (The Journal of Biological Chemistry, 2012).

Target: Kv7.2/7.3 M-channel (Homo sapiens, UniProt O43525+O43526)
Test: single-channel recording, excised inside-out patch
Assay type: cell-based

Kv7.2/7.3 M-channel, sequence (O43526 whole entry): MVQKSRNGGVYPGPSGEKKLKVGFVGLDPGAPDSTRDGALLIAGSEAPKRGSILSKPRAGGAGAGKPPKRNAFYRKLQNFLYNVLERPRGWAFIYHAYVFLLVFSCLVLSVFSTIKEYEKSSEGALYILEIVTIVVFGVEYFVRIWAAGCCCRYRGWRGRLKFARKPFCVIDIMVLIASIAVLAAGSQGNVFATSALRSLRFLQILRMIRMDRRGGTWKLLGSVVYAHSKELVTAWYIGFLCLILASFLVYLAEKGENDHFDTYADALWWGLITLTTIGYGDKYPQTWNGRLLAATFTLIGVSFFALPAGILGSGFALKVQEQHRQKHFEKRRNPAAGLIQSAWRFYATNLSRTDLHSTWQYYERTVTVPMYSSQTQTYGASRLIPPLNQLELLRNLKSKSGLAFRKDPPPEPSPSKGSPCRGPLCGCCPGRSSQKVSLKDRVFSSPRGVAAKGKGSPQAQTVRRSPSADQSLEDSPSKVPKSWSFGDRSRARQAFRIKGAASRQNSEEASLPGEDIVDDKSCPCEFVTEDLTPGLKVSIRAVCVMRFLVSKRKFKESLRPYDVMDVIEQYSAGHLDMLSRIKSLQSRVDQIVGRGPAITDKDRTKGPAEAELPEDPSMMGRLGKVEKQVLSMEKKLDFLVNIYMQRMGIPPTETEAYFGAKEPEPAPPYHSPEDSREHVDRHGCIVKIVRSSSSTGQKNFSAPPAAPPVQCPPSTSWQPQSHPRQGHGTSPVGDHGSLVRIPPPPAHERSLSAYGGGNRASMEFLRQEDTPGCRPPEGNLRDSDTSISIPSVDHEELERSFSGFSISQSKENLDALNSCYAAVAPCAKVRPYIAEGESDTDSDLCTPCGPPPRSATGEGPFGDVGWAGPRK
Kv7.2/7.3 M-channel, sequence (O43525 whole entry): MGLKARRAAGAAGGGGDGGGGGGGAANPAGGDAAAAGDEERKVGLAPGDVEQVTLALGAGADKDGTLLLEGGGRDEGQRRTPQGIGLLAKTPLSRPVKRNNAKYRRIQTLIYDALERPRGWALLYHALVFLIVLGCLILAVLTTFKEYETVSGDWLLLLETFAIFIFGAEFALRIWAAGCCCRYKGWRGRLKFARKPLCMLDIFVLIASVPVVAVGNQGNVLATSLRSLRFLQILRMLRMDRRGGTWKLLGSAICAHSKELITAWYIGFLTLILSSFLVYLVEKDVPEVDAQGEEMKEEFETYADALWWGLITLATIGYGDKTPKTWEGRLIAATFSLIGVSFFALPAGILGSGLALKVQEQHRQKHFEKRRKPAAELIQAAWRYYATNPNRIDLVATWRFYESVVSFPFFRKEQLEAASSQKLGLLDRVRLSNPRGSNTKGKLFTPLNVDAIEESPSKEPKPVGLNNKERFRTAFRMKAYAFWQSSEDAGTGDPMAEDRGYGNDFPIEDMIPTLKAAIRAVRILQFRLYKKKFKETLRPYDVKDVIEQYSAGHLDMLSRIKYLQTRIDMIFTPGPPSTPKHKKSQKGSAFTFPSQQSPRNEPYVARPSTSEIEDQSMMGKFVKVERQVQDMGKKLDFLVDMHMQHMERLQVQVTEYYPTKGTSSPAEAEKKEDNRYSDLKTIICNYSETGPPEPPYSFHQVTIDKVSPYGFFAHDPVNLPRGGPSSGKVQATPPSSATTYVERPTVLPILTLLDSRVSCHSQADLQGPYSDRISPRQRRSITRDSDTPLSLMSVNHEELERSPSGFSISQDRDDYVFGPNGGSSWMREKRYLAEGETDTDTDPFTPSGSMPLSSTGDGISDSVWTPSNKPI

Structure (SMILES) | EC50 [nM]
CCCCCCCCc1ccc(CCC(N)(CO)COP(=O)(O)O)cc1 (stereo not drawn) [FTY720-P] | 500 ± 1
CCCCCCCC/C=C\CCCCCCCC(=O)OC[C@@H](O)COP(=O)(O)O [LPA] | 1500 ± 400
CCCCCCCCCCCCC/C=C/[C@@H](O)[C@@H](N)COP(=O)(O)O [S-1-P] | 3200 ± 600

The remaining lines, values ahead:

EC50 [nM] | Structure (SMILES)
1100 ± 200 | CCCCCCCC(=O)OC[C@H](COP(=O)(O)O[C@H]1[C@H](O)[C@@H](OP(=O)(O)O)[C@H](OP(=O)(O)O)[C@@H](OP(=O)(O)O)[C@H]1O)OC(=O)CCCCCCC [diC8PI(3,4,5)P3]
1700 ± 300 | CCCCCCCC(=O)OC[C@H](COP(=O)(O)O[C@H]1[C@H](O)[C@@H](O)[C@H](OP(=O)(O)O)[C@@H](O)[C@H]1O)OC(=O)CCCCCCC [diC8PI(4)P]
1100 ± 100 | CCCCCCCC(=O)OC[C@H](COP(=O)(O)O[C@@H]1[C@H](O)[C@H](O)[C@@H](OP(=O)(O)O)[C@H](OP(=O)(O)O)[C@H]1O)OC(=O)CCCCCCC [diC8PI(4,5)P2]
